Experimental data: PubChem BioAssay (NCI)
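Interpolation was linear, between the two tested concentrations surrounding the appropriate level; five concentrations were tested over 48 hours in 96-well plates. TGI marks complete inhibition of growth.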

Experiments:
Test in all cases: NCI-60 cell line screen, 48 h
786-0 renal = system: 786-0 renal
A498 renal = system: A498 renal
HS 578T breast = system: HS 578T breast
K-562 leukemia = system: K-562 leukemia
MDA-MB-231 breast = system: MDA-MB-231 breast
MDA-N = system: MDA-N
NCI-H460 lung = system: NCI-H460 lung
NCI/ADR-RES ovarian = system: NCI/ADR-RES ovarian
SF-295 CNS = system: SF-295 CNS
SK-MEL-5 melanoma = system: SK-MEL-5 melanoma
SNB-19 CNS = system: SNB-19 CNS
UACC-257 melanoma = system: UACC-257 melanoma
BT-549 breast = system: BT-549 breast

Row | SMILES | TGI (786-0 renal) | TGI (A498 renal) | TGI (HS 578T breast) | TGI (K-562 leukemia) | TGI (MDA-MB-231 breast) | TGI (MDA-N) | TGI (NCI-H460 lung) | TGI (NCI/ADR-RES ovarian) | TGI (SF-295 CNS) | TGI (SK-MEL-5 melanoma) | TGI (SNB-19 CNS) | TGI (UACC-257 melanoma) | TGI (BT-549 breast)
1 | COc1cc2c3c([nH]c2c(OC)c1OC)CCN(Cc1ccccc1)C3 | > 100 µM | 72.3 µM | > 100 µM | 84.2 µM | > 100 µM | 33.9 µM | 63.5 µM | > 100 µM | > 100 µM | 34.9 µM | > 100 µM | 40 µM | 
2 | CCCCNc1nc(NC2OCC(OC(C)=O)C(OC(C)=O)C2OC(C)=O)c(N=O)c(=O)n1C (stereo not given) | > 10 µM | > 10 µM | > 10 µM |  | > 10 µM |  | > 10 µM | > 10 µM | > 10 µM | > 10 µM | > 10 µM | > 10 µM | > 10 µM
3 | COC(=O)C(=O)Cc1nc2ccccc2o1 |  | > 100 µM |  | > 100 µM |  |  | > 100 µM |  |  |  | > 100 µM | > 100 µM | 
4 | O=c1[nH]nc(-c2ccccc2)n1O | > 100 µM | > 100 µM | > 100 µM | > 100 µM | > 100 µM | > 100 µM | > 100 µM | > 100 µM | > 100 µM | > 100 µM | > 100 µM | > 100 µM | 
5 | OC(c1cccnc1Cl)c1nc2ccccc2c2ccnc(Cl)c12 (stereo not given) |  | 17.5 µM | 9.4 µM | > 100 µM | > 100 µM | 4.49 µM | > 100 µM | > 100 µM | 9.75 µM | > 100 µM | > 100 µM | > 100 µM | > 100 µM
6 | CCN(CCN(CC)C(=O)Nc1ccccc1)C(=O)Nc1ccccc1 | > 100 µM | > 100 µM | > 100 µM | > 100 µM | > 100 µM |  | > 100 µM | > 100 µM | > 100 µM | > 100 µM | > 100 µM | > 100 µM | > 100 µM
7 | O=C1CCCC/C1=C\c1ccc(Cl)c(Cl)c1 |  | > 100 µM |  | 48 µM |  |  | 42.6 µM |  |  | 32.5 µM | 74.3 µM |  | 
8 | Cn1c(=O)n2n(c1=O)C(C)(C13CC4CC(CC(C4)C1)C3)C13CC4CC(CC1C4)CC23 (stereo not given) |  | > 100 µM | > 100 µM | > 100 µM | > 100 µM | > 100 µM | > 100 µM | > 100 µM | > 100 µM | > 100 µM | > 100 µM | > 100 µM | > 100 µM
9 | O=C1c2ccccc2N2OC3(N4CCCC4)CCCCC3C12c1ccccc1 (stereo not given) | 31.6 µM | > 100 µM |  | 59.8 µM |  |  |  |  | 32.7 µM | 32 µM | > 100 µM | 45.6 µM | 
10 | CCC1C(c2ccccc2O)c2cc3c(cc2OC1N1CCOCC1)OCO3 (stereo not given) | 43.9 µM | 27.5 µM | 39.6 µM | 31.5 µM | 33.5 µM | 28.6 µM | 29.7 µM |  | 28.6 µM | 30.5 µM | 28.6 µM | 31.6 µM | 29.3 µM
